Assay results as given in patent US10669239B2, “Tetrahydronaphthyl urea derivative” (MOCHIDA PHARMACEUTICAL CO., LTD., priority 2017, dated 2020).

Target: human TrkA protein (Homo sapiens (Human), UniProt P04629)
Assay: TrkA LanthaScreen Eu Kinase Binding Assay (binding activity for human TrkA protein)
Settings: TrkA enzyme, Kinase Tracer 236, TR-FRET, 60 minutes at room temperature
Experimental: (Pharmacological Experimental Example 1): Evaluation of Binding Activity for Human TrkA Protein
Measurement was carried out using TrkA LanthaScreen (registered trademark) Eu Kinase Binding Assay (ThermoFisher SCIENTIFIC). To a 384 well plate (Corning), 2.5 μL of the test compound having various concentrations and diluted with Kinase buffer (ThermoFisher SCIENTIFIC) and 2.5 μL of 15 nM TrkA enzyme (ThermoFisher SCIENTIFIC) were added. Moreover, 5 μL of 3 nM Eu-anti-His Tag antibody (ThermoFisher SCIENTIFIC) and 5 μL of 30 nM Kinase (registered trademark) Tracer 236 (ThermoFisher SCIENTIFIC) were added, followed by reaction at room temperature for 60 minutes. After the reaction, the fluorescence intensity of Europium (Emission wavelength 615 nm) and TR-FRET (Emission wavelength 665 nm) with an excitation wavelength of 340 nm were measured with EnVision 2100 (PerkinElmer) to calculate the fluorescence ratio as the amount of the test compound and the TrkA enzyme bonded. The inhibitory activity (IC50 value) of each test compound was calculated with the fluorescence ratio of the well to which a solvent was added instead of the test compound being 0% and the fluorescence ratio of the well without addition of the TrkA protein being 100%.
In Table 1, Compounds 1 to 62 respectively mean Compounds 1 to 62 synthesized in accordance with Examples 1 to 62 described later.

Sequence of human TrkA protein (P04629 33-796): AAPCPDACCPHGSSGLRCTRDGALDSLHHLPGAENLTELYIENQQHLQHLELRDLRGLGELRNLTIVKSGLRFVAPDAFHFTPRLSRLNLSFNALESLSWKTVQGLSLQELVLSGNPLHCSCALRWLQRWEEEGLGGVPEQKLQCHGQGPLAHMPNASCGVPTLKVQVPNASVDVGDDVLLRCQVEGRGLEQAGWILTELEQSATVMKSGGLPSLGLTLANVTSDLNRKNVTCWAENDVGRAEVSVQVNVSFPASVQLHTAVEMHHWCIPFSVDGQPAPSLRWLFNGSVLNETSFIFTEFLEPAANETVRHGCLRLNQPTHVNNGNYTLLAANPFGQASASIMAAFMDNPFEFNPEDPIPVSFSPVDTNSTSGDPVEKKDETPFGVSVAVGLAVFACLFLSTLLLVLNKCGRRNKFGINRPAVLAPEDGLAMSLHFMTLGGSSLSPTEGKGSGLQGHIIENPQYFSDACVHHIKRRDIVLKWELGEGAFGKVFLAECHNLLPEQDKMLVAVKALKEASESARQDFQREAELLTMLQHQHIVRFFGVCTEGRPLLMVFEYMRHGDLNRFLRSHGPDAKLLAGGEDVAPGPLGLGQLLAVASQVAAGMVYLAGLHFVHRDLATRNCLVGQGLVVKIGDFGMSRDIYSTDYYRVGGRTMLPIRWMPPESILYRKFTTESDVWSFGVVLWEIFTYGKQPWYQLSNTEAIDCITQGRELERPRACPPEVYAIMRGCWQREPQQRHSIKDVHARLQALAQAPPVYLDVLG

Work on Cc1cc(NC(=O)N[C@@H]2c3cc(F)c(F)cc3C(C)(C)C[C@H]2O)c(-c2ccccc2)nc1-c1ccnc(CO)c1 (racemic) [Compound 56, rac-1-((1R,2R)-6,7-difluoro-2-hydroxy-4,4-dimethyl-1,2,3,4-tetrahydronaphthalen-1-yl)-3-(2′-(hydroxymethyl)-3-methyl-6-phenyl-[2,4′-bipyridin]-5-yl)urea] yielded an IC50 of at most 50 nM.
